Measurements published in publication PMC10246279, “Parasite proteostasis and artemisinin resistance” (Research Square, 2023).

Legend:
[1] = target: T1, P. falciparum proteasome, β1 (caspase-like) activity (Plasmodium falciparum, UniProt Q8I0U7); assay: fluorogenic Ac-nLPnLD-AMC cleavage in lysate of drug-treated parasites; format: cell-based; conditions: read-out: % inhibition at 700 nM
T1 construct: gene PF3D7_0931800; native proteasome in NP-40 lysate of 26-30 hpi trophozoites; not purified; 20S core of four heptameric rings; with Proteasome subunit beta type-7 (beta2 catalytic subunit); Proteasome subunit beta type-5

[2] = target: T2, P. falciparum proteasome, β2 (trypsin-like) activity (Plasmodium falciparum, UniProt Q8I6T3); assay: fluorogenic Ac-RLR-AMC cleavage in lysate of drug-treated parasites; format: cell-based; conditions: read-out: % inhibition at 700 nM
T2 construct: gene PF3D7_1328100; native proteasome in NP-40 lysate of 26-30 hpi trophozoites; not purified; 20S core of four heptameric rings; with Proteasome subunit beta type-5; Proteasome subunit beta type-6 (beta1 catalytic subunit)

[3] = tested on: T3, P. falciparum proteasome, β1 (caspase-like) activity; conditions: live trophozoites treated 3 h, then lysed; K13 C580Y background; effect may be indirect
T3 construct: gene beta1

[4] = target: T4, P. falciparum proteasome, β5 (chymotrypsin-like) activity (Plasmodium falciparum, UniProt Q8IJT1); assay: fluorogenic Suc-LLVY-AMC cleavage in lysate of drug-treated parasites; format: cell-based; conditions: read-out: % inhibition at 700 nM
T4 construct: gene PF3D7_1011400; native proteasome in NP-40 lysate of 26-30 hpi trophozoites; not purified; 20S core of four heptameric rings; with Proteasome subunit beta type-7 (beta2 catalytic subunit); Proteasome subunit beta type-6 (beta1 catalytic subunit)

[5] = tested on: T5, P. falciparum proteasome, β5 (chymotrypsin-like) activity; conditions: live trophozoites treated 3 h, then lysed; K13 C580Y background; effect may be indirect
T5 construct: gene beta5

T1 sequence (Q8I0U7 entry or part of it): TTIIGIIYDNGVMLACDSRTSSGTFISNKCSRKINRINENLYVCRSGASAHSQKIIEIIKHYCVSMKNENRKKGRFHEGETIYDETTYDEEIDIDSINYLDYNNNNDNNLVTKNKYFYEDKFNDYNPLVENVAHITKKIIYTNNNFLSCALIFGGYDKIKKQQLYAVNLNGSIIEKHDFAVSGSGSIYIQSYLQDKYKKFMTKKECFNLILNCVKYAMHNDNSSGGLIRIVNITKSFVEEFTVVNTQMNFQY
T2 sequence (Q8I6T3 entry or part of it): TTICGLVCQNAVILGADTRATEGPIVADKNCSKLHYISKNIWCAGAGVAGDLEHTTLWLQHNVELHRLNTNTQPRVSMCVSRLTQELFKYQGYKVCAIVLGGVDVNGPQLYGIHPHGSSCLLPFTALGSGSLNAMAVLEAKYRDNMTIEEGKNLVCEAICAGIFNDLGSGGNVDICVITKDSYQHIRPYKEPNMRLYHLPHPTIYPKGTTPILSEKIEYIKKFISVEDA
T4 sequence (Q8IJT1 entry or part of it): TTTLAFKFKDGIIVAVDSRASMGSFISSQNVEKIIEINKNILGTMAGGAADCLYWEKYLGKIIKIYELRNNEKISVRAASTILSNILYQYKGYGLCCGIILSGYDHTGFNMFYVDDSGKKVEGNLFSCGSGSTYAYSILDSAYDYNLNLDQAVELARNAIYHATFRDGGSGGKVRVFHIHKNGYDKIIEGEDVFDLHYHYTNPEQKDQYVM

| SMILES | inhibition at 0.7 µM [1] | inhibition at 0.7 µM [2] | % inhibition at 50 nM [3] | inhibition at 0.7 µM [4] | % inhibition at 3 μM [5] |
| --- | --- | --- | --- | --- | --- |
| C[C@@H]1CC[C@H]2[C@@H](C)C(O)O[C@@H]3O[C@@]4(C)CC[C@@H]1[C@]32OO4 (some centres unmarked) [DHA] | ~40% | ~40% | 49% | ~60% | – |
| c1cc(C2CCC3(CC2)OOC2(O3)C3CC4CC(C3)CC2C4)ccc1OCCN1CCOCC1 (centres unmarked) [OZ439] | – | – | – | – | 52% |
